From patent US12559750B2, “Methods and compositions for treatment of polycystic kidney disease” (Regulus Therapeutics Inc., priority 2021, dated 2026)

Legend:
miR-17 = settings: mIMCD3, mouse, Normal; value reported by Lee et al., Nat. Commun., 2019; read-out: miR-17 PD-Sig (EC50); cited from earlier work
Swiss:Rjorl male mice = assay: ICV maximum tolerated dose study for RGLS4326, Study 2; format: in vivo, mouse
Procedure: A second MTD study for RGL4326 by ICV was conducted to assess dose selection for evaluating the compound in disease models (Table 11). In this study, a different mouse strain was evaluated (Swiss:Rjorl male mice, age 5 weeks, sourced from Janvier). Mice were placed under isoflurane anaesthesia (5% for induction and 2% for maintenance, under 100% O2) and given 5 mg/kg s.c. carprofen (Rimadyl®). They were then placed in a stereotaxic frame. A midline sagittal incision was made in the scalp and a hole was drilled in the skull over the left lateral ventricle. A stainless-steel cannula (external diameter 0.51 mm) was placed stereotaxically into the left lateral ventricle at the following coordinates: +0.5 posterior to Bregma, L±0.7 mm, V=−2.7 mm. After a 2-minute delay to allow the brain tissue to slide over the cannula, 4 μL of a solution containing 0.625 mg/mL of RG4326 was slowly infused over 2 minutes. After infusion, the cannula was left in place for a further 5 minutes to prevent backflow of the solution along the cannula track. Mice were given 5 mg/kg s.c. carprofen (Rimadyl®) at 24 and 48 hours, after surgery. Mice were monitored during 3-7 days after surgery (starting 24 h after ICV administration) and their body weight was taken daily to check their health status. For mice monitored over 7 days, body weight was taken on Day 1 and on Day 7 after surgery to check their health status.
In Study 1, 6 mice were injected with 4 μL of a solution at 0.625 mg/mL (2.5 μg total per ICV; Table 10). At the end of anesthesia, the mice remained lying on one side. They were quiet with some periods of scratching during the first hours after surgery. […] In Study 2, four mice were injected with 4 different doses of RGLS4326 (0.75, 1.0, 1.25 and 1.875 mg/mL, volume of 4 μL). One mouse that received the highest dose (1.875 mg/mL, i.e., 7.5 μg/mouse) was found dead around 24 hours after ICV injection. All other mice were in good health, until the end of the pilot study (7 days after administration).

AMPA glutamate receptor [1] = assay: Patch clamp activity (RGLS4326, off-target follow-up); format: cell-based
Procedure: (§1) To identify potential candidates for off-target pharmacology, a panel of 174 targets including G-protein coupled receptors, transporters, ion channels, nuclear receptors, and cytokine receptors was evaluated in vitro for possible interactions with RGLS4326. […] AMPA receptors are ion channels on excitatory synapses in the CNS that mediate fast excitatory neurotransmission and, therefore, are key components of all neuronal networks. Such an interaction with the AMPA receptor could explain the CNS-mediated findings observed at high doses of RGLS4326 in nonclinical toxicology models.

AMPA glutamate receptor [2] = assay: Off-target panel, ligand binding (RGLS4326)
Procedure: as §1

Pcy/DBA mice = assay: Efficacy in Pcy/DBA mouse model of PKD, alone and with tolvaptan; format: in vivo;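 further: dosing began at 6 weeks of age, with endpoints collected 7 days after the last dose and PBS-injected wild-type DBA/2J mice as the normal reference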
Procedure: The efficacy of RG-NG-1015 was also evaluated in the Pcy/DBA mouse model of PKD alone and in combination with tolvaptan.
As outlined in FIGS. 6A and 6B, five groups of male Pcy/DBA mice (n=13 per treatment group) were treated subcutaneously with PBS or RG-NG-1015 at 25, 5, 1, or 0.2 mg/kg once every two weeks (Q2W). Two groups of male Pcy/DBA mice (n=13 per group) were also treated with RG-NG-1015 at 50 mg/kg once every four weeks (Q4W) or at 12.5 mg/kg once weekly (QW). Another four groups of male Pcy/DBA mice (n=13 per group) were treated subcutaneously with PBS or RG-NG-1015 at 25, 5, or 1 mg/kg Q2W in combination with tolvaptan at 0.3% (w/w chow) ad libitum. A group of male WT-BDA/2J mice received subcutaneous injections of PBS Q2W was included in the study as a normal range reference. Mice were randomized into treatment groups at 5 weeks of age, and treatment started at 6 weeks of age for 17 weeks and were sacrificed 7 days after the final treatment. Kidney weight, body weight, kidney cyst index, urine Ngal-to-Creatinine ratio (Ngal/Cr) were measured.

[3] = RG-NG-1015 0.2 mg/kg SC Q2W, 17 weeks
[4] = RG-NG-1015 1 mg/kg SC Q2W + 0.3% Tolvaptan in chow
[5] = RG-NG-1015 1 mg/kg SC Q2W, 17 weeks
[6] = RG-NG-1015 5 mg/kg SC Q2W + 0.3% Tolvaptan in chow
[7] = RG-NG-1015 5 mg/kg SC Q2W, 17 weeks
[8] = RG-NG-1015 12.5 mg/kg SC QW, 17 weeks
[9] = RG-NG-1015 25 mg/kg SC Q2W + 0.3% Tolvaptan in chow
[10] = RG-NG-1015 25 mg/kg SC Q2W, 17 weeks
[11] = RG-NG-1015 50 mg/kg SC Q4W, 17 weeks

ASGSCMAFCFUFUMUSGS [RGLS4326, reference compound]
EC50 (miR-17): 0.0772 µM
toxic effects at 24, 48 or 72 hours (Swiss:Rjorl male mice; ICV 4 μL of 0.625 mg/mL (2.5 μg total), 6 mice): No toxic effects were observed
Dead/Total Mice, Study 2 (Swiss:Rjorl male mice; single ICV 2.5 μg): 0/6
Dead/Total Mice, Study 2 (Swiss:Rjorl male mice; single ICV 3 μg, 7-day): 0/4
Dead/Total Mice, Study 2 (Swiss:Rjorl male mice; single ICV 4 μg, 7-day): 0/4
Dead/Total Mice, Study 2 (Swiss:Rjorl male mice; single ICV 5 μg, 7-day): 0/4
Dead/Total Mice, Study 2 (Swiss:Rjorl male mice; single ICV 7.5 μg, 7-day): 1/4
MTD (Swiss:Rjorl male mice; single ICV, Swiss:Rjorl mouse strain, predicted from Study 2): ~4 µg
functional IC50 based on patch clamp activity (AMPA glutamate receptor [1]): 0.9 to 1.8 µg/mL
IC50 (AMPA glutamate receptor [1]; read-out: functional IC50 based on patch clamp activity): 0.3 to 0.6 µM
50% inhibitory concentration (IC50) based on ligand binding (AMPA glutamate receptor [2]): 14.2 µg/mL
IC50 (AMPA glutamate receptor [2]; read-out: 50% inhibitory concentration (IC50) based on ligand binding): 4.6 µM

ASGSCMAFCFUFUMUSAS [RG-NG-1015]
Mean Cystic Area (Pcy/DBA mice; [3]): 47.09%
Mean Cystic Area % Inhibition (Pcy/DBA mice; [3]): 24.8%
Mean KW/BW (Pcy/DBA mice; [3]): 78 mg/g
Mean KW/BW % Inhibition (Pcy/DBA mice; [3]): 18.7%
Mean Urine Ngal/Cr (Pcy/DBA mice; [3]): 18.38 mg/mg
Mean Urine Ngal/Cr % Inhibition (Pcy/DBA mice; [3]): 13.5%
Mean Cystic Area (Pcy/DBA mice; [4]): 41.91%
Mean Cystic Area % Inhibition (Pcy/DBA mice; [4]): 34.3%
Mean Cystic Area Bliss Analysis (Pcy/DBA mice; [4]): <Additive
Mean KW/BW (Pcy/DBA mice; [4]): 47.1 mg/g
Mean KW/BW % Inhibition (Pcy/DBA mice; [4]): 62.0%
Mean KW/BW Bliss Analysis (Pcy/DBA mice; [4]): Synergistic
Mean Urine Ngal/Cr (Pcy/DBA mice; [4]): 11.16 mg/mg
Mean Urine Ngal/Cr % Inhibition (Pcy/DBA mice; [4]): 49.8%
Mean Urine Ngal/Cr Bliss Analysis (Pcy/DBA mice; [4]): <Additive
Mean Cystic Area (Pcy/DBA mice; [5]): 50.58%
Mean Cystic Area % Inhibition (Pcy/DBA mice; [5]): 18.4%
Mean KW/BW (Pcy/DBA mice; [5]): 82.4 mg/g
Mean KW/BW % Inhibition (Pcy/DBA mice; [5]): 12.5%
Mean Urine Ngal/Cr (Pcy/DBA mice; [5]): 15.18 mg/mg
Mean Urine Ngal/Cr % Inhibition (Pcy/DBA mice; [5]): 29.6%
Mean Cystic Area (Pcy/DBA mice; [6]): 37.47%
Mean Cystic Area % Inhibition (Pcy/DBA mice; [6]): 42.5%
Mean Cystic Area Bliss Analysis (Pcy/DBA mice; [6]): <Additive
Mean KW/BW (Pcy/DBA mice; [6]): 45.6 mg/g
Mean KW/BW % Inhibition (Pcy/DBA mice; [6]): 64.1%
Mean KW/BW Bliss Analysis (Pcy/DBA mice; [6]): Synergistic
Mean Urine Ngal/Cr (Pcy/DBA mice; [6]): 5.84 mg/mg
Mean Urine Ngal/Cr % Inhibition (Pcy/DBA mice; [6]): 76.6%
Mean Urine Ngal/Cr Bliss Analysis (Pcy/DBA mice; [6]): Additive
Mean Cystic Area (Pcy/DBA mice; [7]): 44.58%
Mean Cystic Area % Inhibition (Pcy/DBA mice; [7]): 29.4%
Mean KW/BW (Pcy/DBA mice; [7]): 70 mg/g
Mean KW/BW % Inhibition (Pcy/DBA mice; [7]): 29.9%
Mean Urine Ngal/Cr (Pcy/DBA mice; [7]): 14.65 mg/mg
Mean Urine Ngal/Cr % Inhibition (Pcy/DBA mice; [7]): 32.3%
Mean Cystic Area (Pcy/DBA mice; [8]): 44.99%
Mean Cystic Area % Inhibition (Pcy/DBA mice; [8]): 28.7%
Mean KW/BW (Pcy/DBA mice; [8]): 74.5 mg/g
Mean KW/BW % Inhibition (Pcy/DBA mice; [8]): 23.6%
Mean Urine Ngal/Cr (Pcy/DBA mice; [8]): 8.82 mg/mg
Mean Urine Ngal/Cr % Inhibition (Pcy/DBA mice; [8]): 61.6%
Mean Cystic Area (Pcy/DBA mice; [9]): 38.61%
Mean Cystic Area % Inhibition (Pcy/DBA mice; [9]): 40.4%
Mean Cystic Area Bliss Analysis (Pcy/DBA mice; [9]): <Additive
Mean KW/BW (Pcy/DBA mice; [9]): 42.2 mg/g
Mean KW/BW % Inhibition (Pcy/DBA mice; [9]): 68.9%
Mean KW/BW Bliss Analysis (Pcy/DBA mice; [9]): Synergistic
Mean Urine Ngal/Cr (Pcy/DBA mice; [9]): 5.04 mg/mg
Mean Urine Ngal/Cr % Inhibition (Pcy/DBA mice; [9]): 80.6%
Mean Urine Ngal/Cr Bliss Analysis (Pcy/DBA mice; [9]): Additive
Mean Cystic Area (Pcy/DBA mice; [10]): 46.46%
Mean Cystic Area % Inhibition (Pcy/DBA mice; [10]): 26.0%
Mean KW/BW (Pcy/DBA mice; [10]): 66.9 mg/g
Mean KW/BW % Inhibition (Pcy/DBA mice; [10]): 34.3%
Mean Urine Ngal/Cr (Pcy/DBA mice; [10]): 11.36 mg/mg
Mean Urine Ngal/Cr % Inhibition (Pcy/DBA mice; [10]): 48.8%
Mean Cystic Area (Pcy/DBA mice; [11]): 47.35%
Mean Cystic Area % Inhibition (Pcy/DBA mice; [11]): 24.3%
Mean KW/BW (Pcy/DBA mice; [11]): 67.1 mg/g
Mean KW/BW % Inhibition (Pcy/DBA mice; [11]): 34.0%
Mean Urine Ngal/Cr (Pcy/DBA mice; [11]): 9.32 mg/mg
Mean Urine Ngal/Cr % Inhibition (Pcy/DBA mice; [11]): 59.1%
